Test [1] deals with purified human Factor XIa (Homo sapiens (Human), UniProt P03951). The test can be described thus: Factor XIa Assay. It is filed as biochemical. The note with it: purified human Factor XIa 40 pM; substrate Z-Gly-Pro-Arg-AFC 100 μM; 50 mM HEPES pH 7.4; read-out: Human FXIa Ki. In short, it runs like this:
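Purified human FXIa at 40 pM final with fluorogenic Z-Gly-Pro-Arg-AFC at 100 μM, in 50 mM HEPES pH 7.4, 150 mM NaCl, 5 mM CaCl2, 0.1% PEG 8000, at rt or 37° C. Initial velocities measured after enzyme–inhibitor equilibration; Ki derived from Vo/Vi versus [I] assuming competitive inhibition.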

Test [2] addresses purified Human plasma Kallikrein (Homo sapiens (Human), UniProt P03952). The test can be described thus: Kallikrein Assay. It is filed as biochemical. The method in brief:
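Purified human plasma kallikrein (0.5 nM) with fluorogenic Ac-K-P-R-AFC ([…]) in 50 mM HEPES pH 7.4, 150 mM NaCl, 5 mM CaCl2, 0.1% PEG 8000, at rt or 37 °C. Substrate hydrolysis rate read with and without inhibitor; IC50 from four-parameter logistic fit, converted to Ki by Cheng–Prusoff.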

[3] abbreviates: purified Human plasma Kallikrein 0.5 nM, substrate Acetyl-K-P-R-AFC, 50 mM HEPES pH 7.4, Ki from IC50 by Cheng Prusoff.

Read-outs that look alike come from different tables or passages of the source.

Broadly, the Ki is a measure of affinity in units of concentration, obtained from inhibition or displacement.

Sequence of purified human Factor XIa (P03951 388-625): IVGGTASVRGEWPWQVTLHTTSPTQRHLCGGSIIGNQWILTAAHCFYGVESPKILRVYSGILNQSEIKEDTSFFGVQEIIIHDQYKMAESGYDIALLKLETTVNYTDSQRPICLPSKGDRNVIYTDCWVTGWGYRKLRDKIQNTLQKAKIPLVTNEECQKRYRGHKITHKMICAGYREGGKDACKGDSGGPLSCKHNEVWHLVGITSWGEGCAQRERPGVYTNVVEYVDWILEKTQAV
Sequence of purified human Factor XIa (P03951 19-387 partner): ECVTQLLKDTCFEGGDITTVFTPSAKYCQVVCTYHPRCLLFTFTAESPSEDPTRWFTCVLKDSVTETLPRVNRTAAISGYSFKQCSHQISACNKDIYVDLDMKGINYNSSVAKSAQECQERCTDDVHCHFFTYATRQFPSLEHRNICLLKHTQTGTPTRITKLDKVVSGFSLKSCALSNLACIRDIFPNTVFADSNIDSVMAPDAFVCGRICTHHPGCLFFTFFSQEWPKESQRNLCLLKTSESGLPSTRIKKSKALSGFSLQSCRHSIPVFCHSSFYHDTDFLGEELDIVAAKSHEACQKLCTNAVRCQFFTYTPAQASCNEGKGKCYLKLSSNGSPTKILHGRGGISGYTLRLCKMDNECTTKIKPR
Sequence of purified Human plasma Kallikrein (P03952 391-638): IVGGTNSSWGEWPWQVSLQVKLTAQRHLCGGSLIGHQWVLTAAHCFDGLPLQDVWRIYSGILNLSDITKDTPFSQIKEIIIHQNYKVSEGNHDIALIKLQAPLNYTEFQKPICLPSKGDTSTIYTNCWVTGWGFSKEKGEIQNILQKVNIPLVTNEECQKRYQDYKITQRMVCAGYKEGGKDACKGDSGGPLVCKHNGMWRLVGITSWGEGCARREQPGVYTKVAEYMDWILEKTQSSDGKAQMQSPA
Sequence of purified Human plasma Kallikrein (P03952 20-390 partner): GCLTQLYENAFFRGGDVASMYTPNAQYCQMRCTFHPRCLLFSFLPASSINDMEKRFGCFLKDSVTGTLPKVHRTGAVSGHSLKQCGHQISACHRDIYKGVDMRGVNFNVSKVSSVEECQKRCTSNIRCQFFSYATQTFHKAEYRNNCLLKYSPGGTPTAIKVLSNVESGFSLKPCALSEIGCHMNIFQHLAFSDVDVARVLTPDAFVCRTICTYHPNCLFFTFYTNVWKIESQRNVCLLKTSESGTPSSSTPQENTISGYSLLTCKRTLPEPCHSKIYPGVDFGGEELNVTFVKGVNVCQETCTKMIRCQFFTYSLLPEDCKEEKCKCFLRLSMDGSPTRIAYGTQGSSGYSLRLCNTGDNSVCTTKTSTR

In the case of `Nc1ccc2c(c1)NC(=O)CCCCC(c1ccc(-c3c(F)ccc(Cl)c3F)c[n+]1[O-])c1nc-2c[nH]1` (single isomer, unassigned) [Example 108-a], the Ki came out at 0.18 nM in test [1] and 1.02 nM in test [2] (setting [3]).

For the compound `CC(C)(C)OCCOC(=O)Nc1ccc2c(c1)NC(=O)CCCC[C@H](c1ccc(-c3c(F)ccc(Cl)c3F)c[n+]1[O-])c1cccc-2c1` [Example 45, (S)-2-(2^4-(((2-(tert-butoxy)ethoxy)carbonyl)amino)-4-oxo-3-aza-1(1,3),2(1,2)-dinenzenacyclononaphane-9-yl)-5-(3-chloro-2,6-difluorophenyl)pyridine 1-oxide], the Ki in test [1] was 0.24 nM; in test [2] (setting [3]) it was 0.44 nM.

With `COC(=O)Nc1ccc2c(c1)NC(=O)CC1CC1CC(c1ccc(-c3c(F)cccc3C(F)F)c[n+]1[O-])c1nc-2c(C)[nH]1` (racemic) [Example 156], the Ki in test [1] worked out at 1.55 nM; in test [2] (setting [3]) it was 13.6 nM.

Consider `O=C1CCCCC(c2ccc(-c3cc(Cl)ccc3-n3cnnn3)c[n+]2[O-])c2ccnc(c2)-c2cc(F)ccc2N1` (centres unmarked) [Example 70, 5-(5-chloro-2-(1H-tetrazol-1-yl)phenyl)-2-(2^5-fluoro-4-oxo-3-aza-1(2,4)-pyridina-2(1,2)-benzenacyclononaphane-9-yl)pyridine 1-oxide], for which the Ki in test [1] was 0.37 nM; in test [2] (setting [3]), 2.09 nM.

As to `COC(=O)Nc1ccc2c(c1)NC(=O)CCCCC(c1cc(OC)c(-c3c(F)ccc(Cl)c3F)c[n+]1[O-])c1cccc-2c1` (single isomer, unassigned) [Example 87-a, 5-(3-Chloro-2,6-difluorophenyl)-4-methoxy-2-(2^4-((methoxycarbonyl)amino)-4-oxo-3-aza-1(1,3),2(1,2) -dibenzenacyclononaphane-9-yl)pyridine 1-oxide], the Ki amounted to 4.1 nM in test [1] and 12.7 nM in test [2] (setting [3]).

For `O=C1CCCC[C@H](c2ccc(-c3cc(Cl)ccc3-n3cnnn3)c[n+]2[O-])c2cccc(c2)-c2cc(C(=O)O)ccc2N1` [Example 4-a, 2-(2^5-Carboxy-4-oxo-3-aza-1(1,3),2(1,2)-dibenzenacyclononaphane-9-yl)-5-(5-chloro-2-(1H-tetrazol-1-yl)phenyl)pyridine 1-oxide], the inhibition constant (Ki) in test [1] worked out at 0.31 nM; in test [2] it was 3.41 nM.

With `Nc1ccc2c(c1)NC(=O)CCCCC(c1ccc(-c3c(F)ccc(Cl)c3F)c[n+]1[O-])c1cccc-2c1` (single isomer, unassigned) [Example 43-a, 2-(2^4-amino-4-oxo-3-aza-1(1,3),2(1,2)-dinenzenacyclononaphane-9-yl)-5-(3-chloro-2,6-difluorophenyl)pyridine 1-oxide], the Ki in test [1] is 1.7 nM; in test [2] (setting [3]) it was 7 nM.

Regarding `O=C1CCCCC(c2ccc(-c3cc(Cl)ccc3-n3cnnn3)c[n+]2[O-])c2nc(c[nH]2)-c2cc(F)ccc2N1` (single isomer, unassigned) [Example 11-a, (Z)-5-(5-Chloro-2-(1H-tetrazol-1-yl)phenyl)-2-(2^5-fluoro-4-oxo-1^1h-3-aza-1(4,2)-imidazola-2(1,2)-benzenacyclononaphane-9-yl)pyridine 1-oxide], the Ki in test [1] was found to be 0.22 nM; in test [2] (setting [3]) it was 2.12 nM.

On to `COC(=O)Nc1ccc2c(c1)NC(=O)CCCC[C@H](c1ccc(-c3c(F)ccc(Cl)c3F)c[n+]1[O-])c1cc-2ccn1` (single isomer, unassigned) [Example 73], for which the Ki worked out at 0.34 nM in test [1] and 1.08 nM in test [2] (setting [3]).

As to `COC(=O)Nc1ccc2c(c1)NC(=O)CCCC[C@H](c1ccc(-c3cc(F)ccc3OC(F)(F)F)c[n+]1[O-])c1nc-2c(C)[nH]1` (single isomer, unassigned) [Example 132], the figures for the Ki in test [1] and in test [2] (setting [3]) were 0.22 nM and 5.94 nM, respectively.

As for `COC(=O)Nc1ccc2c(c1)NC(=O)CCCC[C@H](c1ccc(-c3c(F)ccc(Cl)c3F)c[n+]1[O-])c1cc(F)c(F)c-2c1` (single isomer, unassigned) [Example 69], the figures for the Ki in test [1] and in test [2] (setting [3]) were 1.87 nM and 6.79 nM, respectively.

For the compound `COC(=O)Nc1ccc2c(c1)NC(=O)CC1CC1CC(c1ccc(-c3c(C(F)F)ccc(C)c3F)c[n+]1[O-])c1nc-2c(C)[nH]1` (racemic) [Example 158], the figures for the Ki in test [1] and in test [2] (setting [3]) were 1.07 nM and 4.92 nM, respectively.

Take `CCc1[nH]c2nc1-c1ccc(NC(=O)OC)cc1NC(=O)CCCC[C@@H]2c1ccc(-c2c(F)cccc2OC(F)F)c[n+]1[O-]` (single isomer, unassigned) [Example 127]: the Ki in test [1] amounted to 0.15 nM; in test [2] (setting [3]) it was 2.44 nM.

As to `COC(=O)Nc1cc(F)c2c(c1)NC(=O)C(C)CCCC(c1ccc(-c3c(F)ccc(Cl)c3F)c[n+]1[O-])c1cccc-2c1` (single isomer, unassigned) [Example 85-c, 5-(3-Chloro-2,6-difluorophenyl)-2-(2^6-fluoro-2^4-((methoxycarbonyl)amino)-5-methyl-4-oxo-3-aza-1(1,3),2(1,2)-dibenzenacyclononaphane-9-yl)pyridine 1-oxide], the Ki in test [1] amounted to 0.97 nM; in test [2] (setting [3]), 2.59 nM.

As to `O=C1CCCC[C@H](c2ccc(-c3cc(Cl)ccc3-n3cnnn3)c[n+]2[O-])c2cccc(c2)-c2cc(C(=O)O)ccc2N1` [Example 4-b, 2-(2^5-Carboxy-4-oxo-3-aza-1(1,3),2(1,2)-dibenzenacyclononaphane-9-yl)-5-(5-chloro-2-(1H-tetrazol-1-yl)phenyl)pyridine 1-oxide], the Ki in test [1] was 8.4 nM; in test [2], 332 nM.

On to `COC(=O)Nc1ccc2c(c1)NC(=O)CCCC[C@H](c1ccc(-c3cc(Cl)ccc3-n3cc(C)cn3)c[n+]1[O-])c1nc-2c(C)[nH]1` (single isomer, unassigned) [Example 141], for which the Ki is 0.49 nM in test [1] and 82.8 nM in test [2] (setting [3]).

`COC(=O)Nc1ccc2c(c1)NC(=O)CCCC[C@H](c1ccc(-c3cc(Cl)ccc3C#N)c[n+]1[O-])c1cccc-2c1` (single isomer, unassigned) [Example 31]: the inhibition constant Ki in test [1] came to 0.8 nM; in test [2] (setting [3]), 2.68 nM.

Consider `COC(=O)Nc1ccc2c(c1)NC(=O)CCCCC(c1ccc(-c3cc(Cl)ccc3-n3cnnn3)c[n+]1[O-])c1cccc-2c1` (single isomer, unassigned) [Example 6-a, 5-(5-Chloro-2-(1H-tetrazol-1-yl)phenyl)-2-(2^4-((methoxycarbonyl)amino)-4-oxo-3-aza-1(1,3),2(1,2) -dibenzenacyclononaphane-9-yl)pyridine 1-oxide], for which the Ki came to 0.1 nM in test [1] and 0.29 nM in test [2] (setting [3]).

In the case of `COC(=O)Nc1ccc2c(c1)NC(=O)CCCCC(c1ccc(-c3c(F)ccc(Cl)c3F)c[n+]1[O-])c1cc-2[n+]([O-])cc1F` (centres unmarked) [Example 82, 9-(5-(3-chloro-2,6-difluorophenyl)-1-oxidopyridin-2-yl)-1^5-fluoro-2^4-((methoxycarbonyl)amino)-4-oxo-3-aza-1(2,4)-pyridin-1-iuma-2(1,2)-benzenacyclononaphane 1^1-oxide], the Ki in test [1] was 3.7 nM; in test [2] (setting [3]), 9.58 nM.

For the compound `CCc1[nH]c2nc1-c1ccc(NC(=O)OC)cc1NC(=O)CCCC[C@@H]2c1ccc(-c2c(F)cccc2-n2cc(C(F)(F)F)cn2)c[n+]1[O-]` (single isomer, unassigned) [Example 138], the inhibition constant (Ki) in test [1] was 2.3 nM; in test [2] (setting [3]) it was 665 nM.

Consider `O=C1CCCCC(c2ccc(-c3c(-n4cnnn4)ccc(Cl)c3F)c[n+]2[O-])c2cccc(c2)-c2cc(C(=O)O)ccc2N1` (single isomer, unassigned) [Example 5-a, 2-(2^5-carboxy-4-oxo-3-aza-1(1,3),2(1,2)-dibenzenacyclononaphane-9-yl)-5-(3-chloro-2-fluoro-6-(1H-tetrazol-1-yl)phenyl)pyridine 1-oxide], for which the values for the Ki in test [1] and in test [2] (setting [3]) were 0.13 nM and 3.15 nM, respectively.

Regarding `COC(=O)Nc1ccc2c(c1)NC(=O)CCCCC(c1ccc(-c3cc(Cl)ccc3-n3cnnn3)cn1)c1nc-2c[nH]1` (centres unmarked) [Example 97, methyl (Z)-(9-(5-(5-chloro-2-(1H-tetrazol-1-yl)phenyl)pyridin-2-yl)-4-oxo-1^1H-3-AZA-1(4,2)-imidazola-2(1,2)-benzenacyclononaphane-2^4-yl)carbamate], the results for the Ki in test [1] and in test [2] (setting [3]) were 3.3 nM and 161 nM, respectively.

Regarding `COC(=O)Nc1ccc2c(c1)NC(=O)CC1CC1CC(c1ccc(-c3c(F)ccc(Cl)c3F)c[n+]1[O-])c1nc-2c[nH]1` (racemic) [Example 153], the inhibitory constant (Ki) in test [1] was found to be 3 nM; in test [2] (setting [3]), 14.4 nM.

Take `COC(=O)Nc1ccc2c(c1)NC(=O)CCCCC(c1ccc(-c3c(F)ccc(Cl)c3F)c[n+]1[O-])c1nc-2c(Cl)[nH]1` (single isomer, unassigned) [Example 110-a, (Z)-5-(3-Chloro-2,6-difluorophenyl)-2-(1^5-chloro-2^4-((Methoxycarbonyl)amino)-4-oxo-1^1H-3-aza-1(4,2)-imidazola-2(1,2) -benzenacyclononaphane-9-yl)pyridine 1-oxide]: the Ki in test [1] turned out to be 0.52 nM; in test [2] (setting [3]), 0.21 nM.

On to `C[C@@H]1CCC[C@H](c2ccc(-c3cc(Cl)ccc3-n3cc(Cl)nn3)c[n+]2[O-])c2cccc(c2)-c2c(cnn2C(F)F)NC1=O` (single isomer, unassigned) [Example 166-a], for which the inhibition constant Ki in test [1] came to 0.14 nM; in test [2] (setting [3]) it was 1.39 nM.

The values above are taken from US10214512B2, “Factor XIA inhibitors” (MERCK SHARP & DOHME CORP., priority 2015, dated 2019).
